According to US10174030B2 (priority 2014, dated 2019):

Target: LSD1 (Homo sapiens (Human), UniProt O60341)
Test: biochemical
Experimental: After stopping the reactions plates were incubated for 30 minutes and read on a PHERAstar FS plate reader (BMG Labtech).

Structure (SMILES): COc1ccc(CC2(CN[C@@H]3C[C@H]3c3ccccc3)CCN(CC3(C(=O)O)CC3)CC2)cn1 [Example 69, 1-{[4-[(6-methoxypyridin-3-yl)methyl]-4-({[(1R,2S)-2-phenylcyclopropyl]amino}methyl)piperidin-1-yl]methyl}cyclopropanecarboxylic acid]
- IC50: < 100 nM
